Drawing on ChEMBL document CHEMBL1133189, “Novel conformationally constrained tropane analogues by 6-endo-trig radical cyclization and stille coupling - switch of activity toward the serotonin and/or norepinephrine transporter” (J Med Chem, 2000), this text covers Ki for 13 compounds.

pKi: −log10 of the molar value.

The target in assay [1] is T1, Sodium-dependent dopamine transporter (Homo sapiens, UniProt Q01959). Briefly: Compound was evaluated for inhibition of [3H]DA uptake in HEK-hDAT cells expressing Human dopamine Transporter. It counts as cell-based.
Assay [2] addresses T1, Sodium-dependent dopamine transporter. The assay can be described thus: Compound was evaluated for binding affinity to dopamine transporter using [125I]RTI-55 as a radioligand in HEK cells expressing human transporters. It counts as cell-based, HEK293.
The target of assay [3] is Sodium-dependent dopamine transporter (Rattus norvegicus, UniProt P23977). Briefly: Inhibition of reuptake of [3H]DA at Dopamine transporter (DAT).
For assay [4], the target named is Norepinephrine transporter (Rattus norvegicus, UniProt Q9WTR4). The assay can be described thus: Inhibition of reuptake of [3H]-NE at Norepinephrine transporter.
The target in assay [5] is T2, Sodium-dependent noradrenaline transporter (Homo sapiens, UniProt P23975). Briefly: Compound was evaluated for inhibition of [3H]NE uptake in HEK-hNET cells expressing Human norepinephrine transporter. It counts as cell-based.
In assay [6] the target is T3, Sodium-dependent serotonin transporter (Homo sapiens, UniProt P31645). The assay can be described thus: Compound was evaluated for binding affinity using [125I]RTI-55 as a radioligand in HEK-hSERT cells expressing human serotonin transporter. The class given is cell-based.
The target of assay [7] is Sodium-dependent serotonin transporter (Rattus norvegicus, UniProt P31652). The assay can be described thus: Inhibition of reuptake of [3H]5-HT at serotonin transporter.
Assay [8] addresses T2, Sodium-dependent noradrenaline transporter. Briefly: Compound was evaluated for binding affinity using [125I]RTI-55 as a radioligand in HEK-hNET cells expressing human norepinephrine transporter. The class given is cell-based.
In assay [9] the target is T3, Sodium-dependent serotonin transporter. Briefly: Compound was evaluated for inhibition of [3H]5-HT uptake in HEK-hSERT cells expressing Human serotonin transporter. It counts as cell-based.

As a reminder, the pKi is the negative decadic logarithm of the Ki, by convention in mol/L.

Norepinephrine transporter, sequence (Q9WTR4 whole entry): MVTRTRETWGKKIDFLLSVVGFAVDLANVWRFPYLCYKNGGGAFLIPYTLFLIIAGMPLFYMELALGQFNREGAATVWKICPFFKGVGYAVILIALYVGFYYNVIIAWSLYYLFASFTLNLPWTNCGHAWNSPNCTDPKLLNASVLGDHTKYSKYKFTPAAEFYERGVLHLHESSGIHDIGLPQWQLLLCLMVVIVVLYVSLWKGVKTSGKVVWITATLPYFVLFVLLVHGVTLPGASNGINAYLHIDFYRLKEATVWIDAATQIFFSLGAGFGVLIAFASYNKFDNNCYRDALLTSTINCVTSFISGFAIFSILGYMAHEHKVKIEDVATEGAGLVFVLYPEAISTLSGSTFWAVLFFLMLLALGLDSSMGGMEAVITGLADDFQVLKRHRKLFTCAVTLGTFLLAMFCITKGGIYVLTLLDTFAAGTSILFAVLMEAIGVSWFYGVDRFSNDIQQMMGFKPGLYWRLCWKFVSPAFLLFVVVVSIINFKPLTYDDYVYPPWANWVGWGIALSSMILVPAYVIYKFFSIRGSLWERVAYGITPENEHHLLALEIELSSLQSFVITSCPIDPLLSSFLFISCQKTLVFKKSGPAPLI
T3 sequence (P31645 whole entry): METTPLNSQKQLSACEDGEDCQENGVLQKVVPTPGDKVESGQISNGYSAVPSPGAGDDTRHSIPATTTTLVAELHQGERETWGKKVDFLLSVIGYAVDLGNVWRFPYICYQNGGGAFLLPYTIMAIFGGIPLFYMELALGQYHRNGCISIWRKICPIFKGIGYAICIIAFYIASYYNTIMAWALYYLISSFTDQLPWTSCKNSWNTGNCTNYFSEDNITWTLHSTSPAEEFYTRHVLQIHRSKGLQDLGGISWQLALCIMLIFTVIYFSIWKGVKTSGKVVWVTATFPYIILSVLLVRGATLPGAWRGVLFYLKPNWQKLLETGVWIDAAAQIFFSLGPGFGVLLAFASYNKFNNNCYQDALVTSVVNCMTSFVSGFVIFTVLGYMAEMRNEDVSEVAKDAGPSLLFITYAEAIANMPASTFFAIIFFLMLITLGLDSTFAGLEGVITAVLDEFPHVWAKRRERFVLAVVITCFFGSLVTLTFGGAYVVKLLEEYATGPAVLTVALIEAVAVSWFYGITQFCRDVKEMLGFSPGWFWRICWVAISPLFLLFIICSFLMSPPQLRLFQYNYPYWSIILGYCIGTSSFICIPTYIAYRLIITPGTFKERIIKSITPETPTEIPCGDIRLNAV
T1 sequence (Q01959 whole entry): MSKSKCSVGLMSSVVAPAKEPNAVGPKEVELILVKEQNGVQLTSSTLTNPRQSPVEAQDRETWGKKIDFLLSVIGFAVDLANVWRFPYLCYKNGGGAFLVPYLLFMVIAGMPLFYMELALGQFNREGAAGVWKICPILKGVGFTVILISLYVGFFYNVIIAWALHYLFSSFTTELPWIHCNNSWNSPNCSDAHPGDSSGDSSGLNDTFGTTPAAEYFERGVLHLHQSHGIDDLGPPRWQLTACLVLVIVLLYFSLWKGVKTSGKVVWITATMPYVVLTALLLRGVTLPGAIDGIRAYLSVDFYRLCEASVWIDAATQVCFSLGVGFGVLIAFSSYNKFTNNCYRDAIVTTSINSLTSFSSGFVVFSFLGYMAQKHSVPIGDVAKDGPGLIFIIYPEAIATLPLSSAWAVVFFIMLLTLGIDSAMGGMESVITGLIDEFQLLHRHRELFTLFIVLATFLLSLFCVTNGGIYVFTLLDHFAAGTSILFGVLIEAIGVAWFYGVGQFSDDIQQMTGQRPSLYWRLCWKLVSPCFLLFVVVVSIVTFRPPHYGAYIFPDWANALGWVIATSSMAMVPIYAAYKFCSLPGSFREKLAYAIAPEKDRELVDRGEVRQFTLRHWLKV
Sodium-dependent serotonin transporter (Rattus norvegicus, UniProt P31652), sequence (P31652 whole entry): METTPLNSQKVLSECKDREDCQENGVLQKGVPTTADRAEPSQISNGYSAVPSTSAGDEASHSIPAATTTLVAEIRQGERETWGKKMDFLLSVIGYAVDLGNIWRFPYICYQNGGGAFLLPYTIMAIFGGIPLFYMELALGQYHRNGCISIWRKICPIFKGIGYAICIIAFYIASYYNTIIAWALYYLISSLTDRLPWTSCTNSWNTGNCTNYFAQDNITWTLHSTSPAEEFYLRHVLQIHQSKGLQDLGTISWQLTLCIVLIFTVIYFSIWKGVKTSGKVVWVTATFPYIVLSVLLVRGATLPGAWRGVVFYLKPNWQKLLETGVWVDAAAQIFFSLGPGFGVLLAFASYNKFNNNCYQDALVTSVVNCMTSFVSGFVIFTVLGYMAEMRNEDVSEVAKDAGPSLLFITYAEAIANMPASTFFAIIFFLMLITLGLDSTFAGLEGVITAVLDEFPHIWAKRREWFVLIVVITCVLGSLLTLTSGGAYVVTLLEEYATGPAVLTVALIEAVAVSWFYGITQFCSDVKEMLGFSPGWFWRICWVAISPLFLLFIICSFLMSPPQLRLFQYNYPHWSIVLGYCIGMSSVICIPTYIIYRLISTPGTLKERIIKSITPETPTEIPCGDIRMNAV
Sodium-dependent dopamine transporter (Rattus norvegicus, UniProt P23977), sequence (P23977 whole entry): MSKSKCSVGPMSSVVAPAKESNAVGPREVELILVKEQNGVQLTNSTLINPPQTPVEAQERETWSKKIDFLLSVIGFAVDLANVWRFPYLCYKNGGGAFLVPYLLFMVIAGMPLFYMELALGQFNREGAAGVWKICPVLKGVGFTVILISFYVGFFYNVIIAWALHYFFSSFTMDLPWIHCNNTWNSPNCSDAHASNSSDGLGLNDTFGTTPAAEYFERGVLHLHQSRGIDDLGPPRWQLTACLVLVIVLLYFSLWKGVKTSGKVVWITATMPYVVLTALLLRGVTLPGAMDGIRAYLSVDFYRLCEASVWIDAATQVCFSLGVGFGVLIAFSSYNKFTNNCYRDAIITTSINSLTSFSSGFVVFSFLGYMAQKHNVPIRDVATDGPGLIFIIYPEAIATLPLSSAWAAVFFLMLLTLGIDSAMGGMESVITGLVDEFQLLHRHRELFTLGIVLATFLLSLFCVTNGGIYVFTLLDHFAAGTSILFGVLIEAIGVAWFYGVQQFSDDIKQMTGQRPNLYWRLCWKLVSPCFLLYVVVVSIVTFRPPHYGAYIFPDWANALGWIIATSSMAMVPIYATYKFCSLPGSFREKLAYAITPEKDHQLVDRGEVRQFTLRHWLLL
T2 sequence (P23975 whole entry): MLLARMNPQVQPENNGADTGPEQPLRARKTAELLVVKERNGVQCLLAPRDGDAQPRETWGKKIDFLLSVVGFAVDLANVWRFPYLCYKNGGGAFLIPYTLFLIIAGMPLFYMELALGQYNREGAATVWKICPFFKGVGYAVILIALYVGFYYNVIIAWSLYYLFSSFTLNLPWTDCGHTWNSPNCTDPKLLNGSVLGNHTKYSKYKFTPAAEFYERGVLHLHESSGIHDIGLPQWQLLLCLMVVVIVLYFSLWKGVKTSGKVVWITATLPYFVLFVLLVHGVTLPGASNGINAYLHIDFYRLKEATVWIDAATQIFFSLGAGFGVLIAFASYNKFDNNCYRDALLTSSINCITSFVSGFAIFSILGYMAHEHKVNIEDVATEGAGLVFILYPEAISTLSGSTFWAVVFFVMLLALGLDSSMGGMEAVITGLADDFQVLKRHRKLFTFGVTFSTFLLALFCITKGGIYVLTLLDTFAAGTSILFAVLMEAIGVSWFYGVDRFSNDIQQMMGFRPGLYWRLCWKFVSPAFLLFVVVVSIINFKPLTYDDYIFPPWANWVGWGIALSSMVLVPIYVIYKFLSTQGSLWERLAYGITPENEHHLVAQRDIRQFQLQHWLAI

On to `COC(=O)[C@H]1C2CC[C@@H]3C[C@@H]1/C(=C/c1ccccc1)CN23`, for which the negative-log Ki (pKi) in assay [1] was 6.04; in [2] it was 5.80; in assay [3] it was 6.32; in [4], 7.28; in assay [5] it was 7.17; in [6], 5.63. Moreover, the pKi in assay [7] was 5.94; in assay [8], 5.98; in assay [9], 5.62.

Take `COC(=O)[C@H]1C2CC[C@@H]3C[C@@H]1/C(=C/c1ccc(F)cc1)CN23`: the pKi in assay [3] is 5.18; in assay [4] it was 6.23; in assay [7], 6.47.

As to `CC(=O)OC[C@H]1C2CC[C@@H]3C[C@@H]1/C(=C/c1ccccc1)CN23`, the results for the pKi in assay [3], in assay [4] and in assay [7] were 5.99, 6.35 and 5.98, respectively.

For the compound `OC[C@H]1C2CC[C@@H]3C[C@@H]1/C(=C/c1ccccc1)CN23`, the pKi was 5.01 in assay [3], 5.55 in assay [4] and 5.28 in assay [7].

Turning to `COC(=O)[C@H]1C2CC[C@@H]3C[C@@H]1/C(=C/c1ccoc1)CN23`, the pKi in assay [3] is 5.73; in assay [4], 6.79; in assay [7], 6.30.

Regarding `COC(=O)[C@H]1C2CC[C@@H]3C[C@@H]1/C(=C/c1ccc(-c4ccccc4)cc1)CN23`, the pKi in [3] is 6.32; in [4], 7.92; in assay [7] it was 6.21.

`COC(=O)[C@H]1C2CC[C@@H]3C[C@@H]1/C(=C/c1cccs1)CN23`: the pKi in assay [3] is 6.57; in assay [4] it was 7.59; in assay [7], 5.69.

For `COC(=O)[C@H]1C2CC[C@@H]3C[C@@H]1/C(=C/c1ccc(OC)cc1)CN23`, the pKi in assay [1] was 5.43; in [2] it was 5.44; in assay [3], 5.50; in [4] it was 6.73; in assay [5], 6.68; in [6], 7.38. Besides, the pKi is 7.25 in assay [7], 5.26 in assay [8] and 7.28 in assay [9].

Take `COC(=O)[C@H]1C2CC[C@@H]3C[C@@H]1/C(=C\c1ccccc1)CN23`: the negative-log Ki (pKi) in [3] was 5.29; in assay [4], 5.82; in assay [7] it was 5.13.

Regarding `COC(=O)[C@H]1C2CC[C@@H]3C[C@@H]1/C(=C/c1ccco1)CN23`, the results for the pKi in assay [3], in [4] and in [7] were 5.69, 6.95 and 5.43, respectively.

Regarding `OC[C@H]1C2CC[C@@H]3C[C@@H]1/C(=C/c1ccc(Cl)c(Cl)c1)CN23`, the values for the pKi in [3], in [4] and in [7] were 4.67, 4.98 and 7.02, respectively.

Turning to `COC(=O)[C@H]1C2CC[C@@H]3C[C@@H]1/C(=C/c1cccc4ccccc14)CN23`, the values for the pKi in [3], in assay [4] and in assay [7] were 5.01, 5.27 and 6.92, respectively.

For `COC(=O)[C@H]1C2CC[C@@H]3C[C@@H]1/C(=C/c1ccc(Cl)c(Cl)c1)CN23` (stereo in doubt; 5b), the pKi in assay [1] was less than 5.00; in assay [2] it was 5.48; in assay [3] it was 5.72; in [4], 6.00; in [5], 6.19; in assay [6] it was 9.25. Further, the pKi was 7.70 in assay [7], 5.42 in [8] and 7.52 in [9].
